Among the data in PubChem BioAssay (NCI) are TGI values, retold here.

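Results reflect a 48-hour exposure of cells in 96-well plates to compound at five concentrations. TGI is the concentration that stops growth completely.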 Some results are limits rather than exact numbers.

Some test systems named below: ACHN renal; EKVX NSCLC; HCT-15 colon; MALME-3M melanoma; NCI-H522 lung; RPMI-8226 leukemia; SF-295 CNS; SK-MEL-5 melanoma; SN12C renal; SNB-19 CNS.
Test in all cases: NCI tumour cell line growth inhibition, 48 h

`O=c1c2cc(S(=O)(=O)O)ccc2nc(COc2ccc(Oc3ccc(Cl)cc3Cl)cc2)n1C(=S)Nc1ccc(Cl)cc1`: the TGI was found to be 64.7 µM in the test with ACHN renal; 56.6 µM in the test with EKVX NSCLC; 50.5 µM in the test with HCT-15 colon; 49 µM in the test on MALME-3M melanoma; 39.8 µM in the test on NCI-H522 lung; 81.5 µM in the test with RPMI-8226 leukemia. Also, the TGI in the test on SF-295 CNS is 39.6 µM; in the test on SK-MEL-5 melanoma, 33.1 µM; with SN12C renal, 34.7 µM; in the test on SNB-19 CNS it was greater than 100 µM.

In the case of `c1c2c(cc3c1OCO3)-c1cc3ccc4c(c3c[n+]1CC2)OCO4`, the TGI in the test on ACHN renal is greater than 12.5 µM; in the test on EKVX NSCLC, greater than 12.5 µM; with HCT-15 colon, 4.77 µM; with MALME-3M melanoma it was 3.04 µM; in the test with NCI-H522 lung, 1.8 µM; in the test on RPMI-8226 leukemia, greater than 12.5 µM. For the same compound, the TGI with SF-295 CNS is 3.52 µM; with SK-MEL-5 melanoma, greater than 5 µM; with SN12C renal, greater than 12.5 µM; with SNB-19 CNS, greater than 8.78 µM.

Regarding `CNC(C)Cc1ccccc1OC` (stereo not given), the TGI with ACHN renal, with EKVX NSCLC, in the test with HCT-15 colon, in the test on MALME-3M melanoma, with NCI-H522 lung and in the test with RPMI-8226 leukemia was greater than 100 µM in each case. Moreover, the TGI in the test with SF-295 CNS, in the test with SK-MEL-5 melanoma, in the test on SN12C renal and with SNB-19 CNS was greater than 100 µM each time.

With `NCCNCCNc1ccc(NCCNCCN)c2c1C(=O)c1c(O)ccc(O)c1C2=O`, the TGI in the test on ACHN renal, in the test with EKVX NSCLC, in the test on HCT-15 colon, in the test with MALME-3M melanoma, in the test with NCI-H522 lung and with RPMI-8226 leukemia was greater than 100 µM throughout. Moreover, the TGI in the test on SF-295 CNS, in the test with SK-MEL-5 melanoma, in the test on SN12C renal and with SNB-19 CNS was greater than 100 µM in each case.

Regarding `c1ccc([P+](c2ccccc2)(c2ccccc2)c2ccc(-c3ccc([P+](c4ccccc4)(c4ccccc4)c4ccccc4)cc3)cc2)cc1`, the TGI was 73.3 µM in the test on ACHN renal; greater than 100 µM with EKVX NSCLC; greater than 100 µM in the test with HCT-15 colon; 89.9 µM in the test with MALME-3M melanoma; 64.4 µM with NCI-H522 lung; greater than 100 µM in the test with RPMI-8226 leukemia. Besides, the TGI is 76.9 µM in the test on SF-295 CNS, 3.32 µM in the test with SK-MEL-5 melanoma, 97.1 µM in the test on SN12C renal and greater than 100 µM in the test with SNB-19 CNS.

With `Nc1nc(OCC2CCCCC2)c2[nH]cnc2n1`, the TGI is 38.4 µM with ACHN renal; 61.9 µM with EKVX NSCLC; greater than 100 µM with HCT-15 colon; greater than 50.4 µM with MALME-3M melanoma; 60.1 µM in the test on NCI-H522 lung; 55.5 µM with RPMI-8226 leukemia. For the same compound, the TGI was greater than 75.6 µM with SF-295 CNS, 67.2 µM in the test on SK-MEL-5 melanoma, 56.3 µM in the test on SN12C renal and greater than 100 µM with SNB-19 CNS.

As for `CCOP(=O)(OCC)C(Nc1cccc(F)c1)c1ccc(N(C)C)cc1` (stereo not given), the TGI in the test with ACHN renal, with EKVX NSCLC, in the test with HCT-15 colon, with MALME-3M melanoma, in the test with NCI-H522 lung and with RPMI-8226 leukemia was greater than 100 µM in each case. In addition, the TGI in the test on SF-295 CNS, with SK-MEL-5 melanoma, in the test with SN12C renal and in the test on SNB-19 CNS was greater than 100 µM each time.

As for `Cc1ccc([N+](=O)[O-])cc1S(=O)(=O)Nc1ccc(C2=NOC(c3ccccc3O)C2)cc1` (stereo not given), the TGI in the test with ACHN renal is greater than 100 µM; in the test on EKVX NSCLC, greater than 100 µM; in the test with HCT-15 colon it was 85.3 µM; in the test with MALME-3M melanoma, greater than 100 µM; in the test with NCI-H522 lung, 6.4 µM; in the test with RPMI-8226 leukemia it was greater than 100 µM. Moreover, the TGI in the test on SF-295 CNS is greater than 100 µM; in the test on SK-MEL-5 melanoma, 49.4 µM; in the test on SN12C renal it was greater than 100 µM; in the test on SNB-19 CNS it was 17.7 µM.

Consider `CCO[C@]12CCC[C@H]1[C@@H]1C(=O)c3ccccc3C(=O)C1=C(C)O2`, for which the TGI in the test with ACHN renal, with EKVX NSCLC, with HCT-15 colon, with MALME-3M melanoma, in the test with NCI-H522 lung and in the test with RPMI-8226 leukemia was greater than 100 µM throughout. Besides, the TGI with SF-295 CNS, with SK-MEL-5 melanoma, with SN12C renal and in the test with SNB-19 CNS was greater than 100 µM each time.
